Experiments:
MDM2 = target: T1, MDM2 (Homo sapiens, UniProt Q00987); test: Western blot of HCT116 cells, MDM2 level; format: cell-based; settings: Western blot (FIG. 2, FIG. 3)
T1 construct: Western blot of HCT116 cells treated with chimeric molecules; endogenous in cells; host or cells: HCT116

p53 = test: Western blot of HCT116 cells, p53 level; format: cell-based, human; settings: Western blot (FIG. 2, FIG. 3)
androgen receptor (AR) = target: T2, androgen receptor (AR) (Homo sapiens, UniProt P10275); test: AR ELISA assay (degradation); format: cell-based; settings: VCaP cells, 16 h
T2 construct: detects endogenous levels of total androgen receptor protein; host or cells: VCaP
T2 sequence (P10275 1-920): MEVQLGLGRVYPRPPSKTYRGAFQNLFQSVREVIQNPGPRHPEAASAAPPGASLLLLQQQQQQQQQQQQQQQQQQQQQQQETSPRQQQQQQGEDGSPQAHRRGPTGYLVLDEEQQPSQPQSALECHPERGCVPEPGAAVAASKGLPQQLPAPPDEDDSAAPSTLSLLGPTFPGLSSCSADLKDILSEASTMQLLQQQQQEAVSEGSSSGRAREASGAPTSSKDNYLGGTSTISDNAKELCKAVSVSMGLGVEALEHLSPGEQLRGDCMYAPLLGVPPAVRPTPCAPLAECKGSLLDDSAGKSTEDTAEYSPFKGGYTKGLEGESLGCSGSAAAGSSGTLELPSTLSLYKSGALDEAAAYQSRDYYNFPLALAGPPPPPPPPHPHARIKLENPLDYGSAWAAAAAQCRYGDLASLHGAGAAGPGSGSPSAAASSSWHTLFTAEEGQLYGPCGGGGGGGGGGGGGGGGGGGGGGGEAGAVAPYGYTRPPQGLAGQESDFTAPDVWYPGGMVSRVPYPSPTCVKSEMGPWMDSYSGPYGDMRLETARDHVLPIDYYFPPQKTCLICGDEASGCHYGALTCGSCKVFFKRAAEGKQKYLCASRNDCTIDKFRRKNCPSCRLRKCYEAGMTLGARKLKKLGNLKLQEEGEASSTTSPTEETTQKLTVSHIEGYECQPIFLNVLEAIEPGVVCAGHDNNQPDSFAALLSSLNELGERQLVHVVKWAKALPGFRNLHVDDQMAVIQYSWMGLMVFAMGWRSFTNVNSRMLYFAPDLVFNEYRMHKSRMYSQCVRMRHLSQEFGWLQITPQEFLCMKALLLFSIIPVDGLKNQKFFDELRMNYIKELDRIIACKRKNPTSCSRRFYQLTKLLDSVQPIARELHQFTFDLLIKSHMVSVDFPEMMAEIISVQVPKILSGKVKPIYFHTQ
Method: The following biological assays were performed to evaluate the protein degradation in various cell types using representative compounds disclosed. The degradation of the following proteins were evaluated: bromodomain-containing protein 4 (BRD4), androgen receptor (AR), c-Myc, c-Jun N-terminal kinases (JNK), and enhancer of zeste homolog 2 (EZH2).
VCaP cells were chased from ATCC and cultured in Dulbecco's Modified Eagle's Medium (ATCC), supplemented with 10% FBS (ATCC) and Penicillin/Streptomycin (Life Technologies). DMSO control and compound treatments (0.0001 μM to 1 μM) were performed in 96-well plates for 16 h. cells were harvested, and lysed with Cell Lysis Buffer (catalog #9803) (20 mM Tris-HCl, pH 7.5, 150 mM NaCl, 1 mM Na2EDTA, 1 mM EGTA, 1% Triton, 2.5 mM sodium pyrophosphate, 1 mM B-glycerophosphate, 1 mM Na3VO4, 1 μg/mL leupeptin. Lysates were clarified at 16,000 g for 10 minutes, and loaded into PathScan AR ELISA (Cell Signaling Catalog #12850). The PathScan Total Androgen Receptor Sanwich ELISA Kit is a solid phase sandwich enzyme-linked immunosorbent assay (ELISA) that detects endogenous levels of total androgen receptor protein. An Androgen Receptor Rabbit mAb has been coated onto the microwells. After incubation with cell lysates, androgen receptor protein is captured by the coated antibody. Following extensive washing, an Androgen receptor Mouse Detection mAbis added to detect the captured androgen receptor protein. Anti-mouse IgG, HRP-linked Antibody is then used to recognize the bound detection antibody. HRP substrate, TMB, is added to develop color. The magnitude of absorbance for the developed color is proportional to the quantity of total androgen receptor protein.

T1 sequence (Q00987 whole entry): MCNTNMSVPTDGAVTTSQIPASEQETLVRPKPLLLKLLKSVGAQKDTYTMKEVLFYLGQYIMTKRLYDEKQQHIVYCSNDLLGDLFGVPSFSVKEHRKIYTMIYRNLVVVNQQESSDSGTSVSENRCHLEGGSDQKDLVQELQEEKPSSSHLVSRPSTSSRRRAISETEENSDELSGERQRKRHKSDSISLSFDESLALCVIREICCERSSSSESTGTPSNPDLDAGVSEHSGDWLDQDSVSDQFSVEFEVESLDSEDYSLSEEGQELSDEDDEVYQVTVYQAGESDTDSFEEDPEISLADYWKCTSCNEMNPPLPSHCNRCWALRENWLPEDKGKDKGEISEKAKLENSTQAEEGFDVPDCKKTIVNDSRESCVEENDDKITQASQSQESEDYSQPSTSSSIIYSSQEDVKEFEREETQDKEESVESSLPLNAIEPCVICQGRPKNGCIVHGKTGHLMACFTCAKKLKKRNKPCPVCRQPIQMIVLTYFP

Compound	MDM2 up-regulation (MDM2)	p53 level increase (p53)	AR degradation (%) at 1 µM (androgen receptor (AR)) [%]
COc1cc(C(=O)NCCOCCOCC(=O)N[C@H](C(=O)N2C[C@H](O)C[C@H]2C(=O)NCc2ccc(-c3scnc3C)cc2)C(C)(C)C)ccc1NC(=O)[C@H]1N[C@H](CC(C)(C)C)[C@@](C#N)(c2ccc(Cl)cc2F)[C@@H]1c1cccc(Cl)c1F [Compound A1908]	no MDM2 up-regulation	no p53 level increase	
COc1cc(C(=O)NCCOCCOCCOCCOCC(=O)N[C@H](C(=O)N2C[C@H](O)C[C@H]2C(=O)NCc2ccc(-c3scnc3C)cc2)C(C)(C)C)ccc1NC(=O)[C@H]1N[C@H](CC(C)(C)C)[C@@](C#N)(c2ccc(Cl)cc2F)[C@@H]1c1cccc(Cl)c1F (single isomer, unassigned) [Compound A1897]	no MDM2 up-regulation	no p53 level increase	
COc1cc(C(=O)NCCOCCOCC(=O)N[C@H](C(=O)N2C[C@H](O)C[C@H]2C(=O)NCc2ccc(-c3scnc3C)cc2)C(C)(C)C)ccc1NC(=O)C1NC(CC(C)(C)C)C(C#N)(c2ccc(Cl)cc2F)C1c1cccc(Cl)c1F (mixture of isomers) [Compound A1877, 3-(3-chloro-2-fluorophenyl)-4-(4-chloro-2-fluorophenyl)-4-cyano-5-(2,2-dimethylpropyl)-N-[4-({2-[2-({[(2S)-1-[(2S,4R)-4-hydroxy-2-({[4-(4-methyl-1,3-thiazol-5-yl)phenyl]methyl}carbamoyl)pyrrolidin-1-yl]-3,3-dimethyl-1-oxobutan-2-yl]carbamoyl}methoxy)ethoxy]ethyl}carbamoyl)-2-methoxyphenyl]pyrrolidine-2-carboxamide]	up-regulation of MDM2	dose dependent p53 level increase	
COc1cc(C(=O)NCCOCCOCCOCC(=O)N[C@H](C(=O)N2C[C@H](O)C[C@H]2C(=O)NCc2ccc(-c3scnc3C)cc2)C(C)(C)C)ccc1NC(=O)[C@H]1N[C@H](CC(C)(C)C)[C@@](C#N)(c2ccc(Cl)cc2F)[C@@H]1c1cccc(Cl)c1F [Compound A1911, (2S,3R,4S,5R)-3-(3-chloro-2-fluorophenyl)-4-(4-chloro-2-fluorophenyl)-4-cyano-5-(2,2-dimethylpropyl)-N-{4-[(2-{2-[2-({[(2S)-1-[(2S,4R)-4-hydroxy-2-({[4-(4-methyl-1,3-thiazol-5-yl)phenyl]methyl}-carbamoyl)pyrrolidin-1-yl]-3,3-dimethyl-1-oxobutan-2-yl]carbamoyl}methoxy)-ethoxy]ethoxy}ethyl)carbamoyl]-2-methoxyphenyl}pyrrolidine-2-carboxamide]	no MDM2 up-regulation	no p53 level increase	
CC(C)(C)C[C@H]1N[C@H](C(=O)NCCOCCOCCOCCOCCOc2ccc(C(=O)N[C@H]3C(C)(C)[C@H](Oc4ccc(C#N)c(Cl)c4)C3(C)C)cc2)[C@@H](c2cccc(Cl)c2F)[C@]1(C#N)c1ccc(Cl)cc1F [Compound A1735, (2S,3R,4S,5R)-3-(3-chloro-2-fluorophenyl)-4-(4-chloro-2-fluorophenyl)-4-cyano-5-(2,2-dimethylpropyl)-N-[1-(4-{[(1r,3r)-3-(3-chloro-4-cyanophenoxy)-2,2,4,4-tetramethylcyclobutyl]carbamoyl]phenyl)-1,4,7,10,13-pentaoxapentadecan-15-yl]pyrrolidine-2-carboxamide]			0 to 25
CC(C)(C)C[C@@H]1N[C@@H](C(=O)NCCOCCOCCOCCOCCOc2ccc(C(=O)N[C@H]3C(C)(C)[C@H](Oc4ccc(C#N)c(Cl)c4)C3(C)C)cc2)[C@H](c2cccc(Cl)c2F)[C@@]1(C#N)c1ccc(Cl)cc1F [Compound A1720, (2R,3S,4R,5S)-3-(3-chloro-2-fluorophenyl)-4-(4-chloro-2-fluorophenyl)-4-cyano-5-(2,2-dimethylpropyl)-N-[1-(4-{[(1,3-trans)-3-(3-chloro-4-cyanophenoxy)-2,2,4,4-tetramethylcyclobutyl]carbamoyl}phenyl)-1,4,7,10,13-pentaoxapentadecan-15-yl]pyrrolidine-2-carboxamide]			25 to 50
CC(C)(C)C[C@@H]1NC(C(=O)NCCOCCOCCOCCOCCOc2ccc(C(=O)N[C@H]3C(C)(C)[C@H](Oc4ccc(C#N)c(Cl)c4)C3(C)C)cc2)[C@H](c2cccc(Cl)c2F)[C@@]1(C#N)c1ccc(Cl)cc1F (stereo partly drawn) [Compound A1717, 3-(3-chloro-2-fluorophenyl)-4-(4-chloro-2-fluorophenyl)-4-cyano-5-(2,2-dimethylpropyl)-N-[1-(4-{[(1,3-trans)-3-(3-chloro-4-cyanophenoxy)-2,2,4,4-tetramethylcyclobutyl]carbamoyl}phenyl)-1,4,7,10,13-pentaoxapentadecan-15-yl]pyrrolidine-2-carboxamide]			25 to 50
CCOc1cc(C(C)(C)C)ccc1C1=NC(C)(c2ccc(Cl)cc2)C(C)(c2ccc(Cl)cc2)N1C(=O)N1CCN(CCOCCOc2ccc(N3C(=S)N(c4ccc(C#N)c(C(F)(F)F)c4)C(=O)C3(C)C)cc2)CC1 (centres unmarked) [Compound A680, 4-(3-{4-[2-(2-{4-[2-(4-tert-butyl-2-ethoxyphenyl)-4,5-bis(4-chlorophenyl)-4,5-dimethyl-4,5-dihydro-1H-imidazole-1-carbonyl]piperazin-1-yl}ethoxy)ethoxy]phenyl}-4,4-dimethyl-5-oxo-2-sulfanylideneimidazolidin-1-yl)-2-(trifluoromethyl)benzonitrile]			0 to 25
CC(C)(C)C[C@@H]1NC(C(=O)NCCOCCOCCOc2ccc(C(=O)N[C@H]3C(C)(C)[C@H](Oc4ccc(C#N)c(Cl)c4)C3(C)C)cc2)[C@H](c2cccc(Cl)c2F)[C@@]1(C#N)c1ccc(Cl)cc1F (stereo partly drawn) [Compound A1621, 3-(3-chloro-2-fluorophenyl)-4-(4-chloro-2-fluorophenyl)-4-cyano-5-(2,2-dimethylpropyl)-N-(2-{2-[2-(4-{[(1,3-trans)-3-(3-chloro-4-cyanophenoxy)-2,2,4,4-tetramethylcyclobutyl]carbamoyl}phenoxy)ethoxy]ethoxy}ethyl)pyrrolidine-2-carboxamide]			0 to 25
CC(C)(C)C[C@@H]1NC(C(=O)NCCOCCOc2ccc(C(=O)N[C@H]3C(C)(C)[C@H](Oc4ccc(C#N)c(Cl)c4)C3(C)C)cc2)[C@H](c2cccc(Cl)c2F)[C@@]1(C#N)c1ccc(Cl)cc1F (stereo partly drawn) [Compound A1571, 3-(3-chloro-2-fluorophenyl)-4-(4-chloro-2-fluorophenyl)-4-cyano-5-(2,2-dimethylpropyl)-N-{2-[2-(4-{[(1,3-trans)-3-(3-chloro-4-cyanophenoxy)-2,2,4,4-tetramethylcyclobutyl]carbamoyl}phenoxy)ethoxy]ethyl}pyrrolidine-2-carboxamide]			0 to 25

From patent US12577255B2, “MDM2-based modulators of proteolysis and associated methods of use” (Arvinas Operations, Inc., priority 2015, dated 2026)
